pKi: −log10 of the molar value.
Key:
CDK2 = biological target: T1, CDK2 (Homo sapiens, UniProt P24941); assay: NanoBiT assay (CDK2 degradation); format: cell-based; settings: HEK293, HEK293 clonal line with CRISPR KI HiBiT tag on CDK2, Endurazine live cell substrate, 24 hours
T1 construct: HEK293 clonal lines with CRISPR KI HiBiT tag on CDK2 proteins; host or cells: HEK293 clonal line, CRISPR knock-in HiBiT-CDK2, stably expressing LgBiT
Protocol: HEK293 clonal lines with CRISPR KI HiBiT tag on either CDK2 proteins and stably expressing LgBiT protein were obtained from Promega (Madison, WI). Cells were plated at 5000 cells per well using Multiflo (BioTek) in 384-well white solid bottom plates (Corning, 3570BC) in 25 ul volume in DMEM media (DMEM, high glucose, HEPES, no phenol red (ThermoFisher Scientific, 21063029)) containing 10% FBS (Corning, 35-075-CV), 1% Penicillin/Streptomycin ((ThermoFisher Scientific, 15140-122), and 1% Endurazine (Nano-Glo Endurazine Live Cell Substrate (Promega, N2571)). Cells were incubated for 16 hours at 37 C, 5% CO2. 75 nL of a compound at 30 μM were dosed into the plate using an Echo® 650 liquid handler (Labcyte). Cells were incubated at 37° C., 5% CO2 for 24 hours and then signal was read on a Pherastar FSX using “LUM plus” optic module.
Analysis was performed in Scinamic (Scinamic, Cambridge, MA). Luminescence response (R) was calculated by the formula: response=100*(S−N)/(P−N) where S is the signal of the well, N and P the mean negative and positive control values respectively of the same plate. The luminescence response was then fitted in Scinamic using a 3-parameter agonist logistic fit (hillslope=1, EC50>0, top/bottom unconstrained).

CRBN-DDB1 = CRBN-DDB1 (Homo sapiens, UniProt Q96SW2); assay: Compound binding to CRBN by HTRF assay; settings: CRBN-DDB1 2.5 nM, Cy5-Thalidomide 100 nM, 30 min; Ki from geometric mean IC50 by Cheng-Prustoff transformation
CRBN-DDB1, sequence (Q96SW2 whole entry): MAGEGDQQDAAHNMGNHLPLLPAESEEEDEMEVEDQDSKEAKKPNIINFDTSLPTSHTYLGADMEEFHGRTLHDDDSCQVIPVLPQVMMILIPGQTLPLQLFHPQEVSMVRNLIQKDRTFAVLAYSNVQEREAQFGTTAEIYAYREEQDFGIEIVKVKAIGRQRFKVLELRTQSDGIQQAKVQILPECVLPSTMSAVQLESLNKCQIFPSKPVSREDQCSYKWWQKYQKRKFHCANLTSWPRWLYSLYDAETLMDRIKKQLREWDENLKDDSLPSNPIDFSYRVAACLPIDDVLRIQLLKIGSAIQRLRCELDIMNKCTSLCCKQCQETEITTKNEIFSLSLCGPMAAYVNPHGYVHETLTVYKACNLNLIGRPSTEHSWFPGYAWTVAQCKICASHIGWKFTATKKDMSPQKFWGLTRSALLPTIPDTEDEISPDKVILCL
CRBN-DDB1, sequence (Q16531 whole entry partner): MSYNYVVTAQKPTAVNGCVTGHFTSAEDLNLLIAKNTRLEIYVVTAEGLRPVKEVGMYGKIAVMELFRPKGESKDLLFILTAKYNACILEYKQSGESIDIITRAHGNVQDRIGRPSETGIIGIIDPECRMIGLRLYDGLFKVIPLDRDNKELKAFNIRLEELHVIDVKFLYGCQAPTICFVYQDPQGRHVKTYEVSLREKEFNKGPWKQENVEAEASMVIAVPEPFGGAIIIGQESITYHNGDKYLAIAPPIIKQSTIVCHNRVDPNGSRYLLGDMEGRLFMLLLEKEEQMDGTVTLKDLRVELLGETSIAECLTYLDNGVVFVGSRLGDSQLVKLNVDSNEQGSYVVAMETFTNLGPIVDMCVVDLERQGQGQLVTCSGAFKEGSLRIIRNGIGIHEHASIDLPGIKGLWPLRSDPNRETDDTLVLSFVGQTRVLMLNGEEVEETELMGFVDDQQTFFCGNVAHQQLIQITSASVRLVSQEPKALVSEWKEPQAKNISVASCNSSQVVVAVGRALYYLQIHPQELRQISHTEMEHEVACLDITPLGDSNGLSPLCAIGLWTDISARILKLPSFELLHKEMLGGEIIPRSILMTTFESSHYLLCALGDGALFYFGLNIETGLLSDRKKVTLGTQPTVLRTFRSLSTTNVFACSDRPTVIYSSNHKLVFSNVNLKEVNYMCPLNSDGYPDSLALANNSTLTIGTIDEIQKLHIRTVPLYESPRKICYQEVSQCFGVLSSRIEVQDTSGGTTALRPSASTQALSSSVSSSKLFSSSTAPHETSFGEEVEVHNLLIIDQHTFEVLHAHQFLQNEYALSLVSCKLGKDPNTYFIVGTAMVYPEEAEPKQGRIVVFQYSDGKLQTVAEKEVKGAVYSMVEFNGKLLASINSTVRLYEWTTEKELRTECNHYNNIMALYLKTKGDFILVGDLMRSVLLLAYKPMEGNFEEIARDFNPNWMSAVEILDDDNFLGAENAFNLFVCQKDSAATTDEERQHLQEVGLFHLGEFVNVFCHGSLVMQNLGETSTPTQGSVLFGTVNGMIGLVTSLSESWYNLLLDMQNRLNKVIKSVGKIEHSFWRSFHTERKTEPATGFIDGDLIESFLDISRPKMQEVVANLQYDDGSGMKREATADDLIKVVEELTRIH
Protocol: Compound activity was monitored in a Homogenous Time-Resolved Fluorescence (HTRF) assay using 1-[5-({2-[2-(2-{[2-(2,6-dioxopiperidin-3-yl)-1,3-dioxo-2,3-dihydro-1H-isoindol-4-yl]oxy}acetamido)ethoxy]ethyl}carbamoyl)pentyl]-3,3-dimethyl-2-[(1E,3E)-5-[(2E)-1,3,3-trimethyl-5-sulfo-2,3-dihydro-1H-indol-2-ylidene]penta-1,3-dien-1-yl]-3H-indol-1-ium-5-sulfonate as a fluorescent probe. Biochemical assays were conducted in Greiner white 384 well HiBase plates (Cat. No 784075-25) in 10 μL total volume. A one pot detection solution of CRBN-DDB1 (2.5 nM), Anti-His Terbium Cryptate Gold (1×, PerkinElmer Cat. #: 61HI2TLB), and Cy5-Thalidomide (100 nM, Tenova Cat.: T52461) was prepared in 20 mM HEPES, 20 mM NaCl, 0.2 mM TCEP, 0.2 mM EDTA, and 0.005% Tween20 was dispensed to each assay plate. Compounds were stored in dry, ambient temperatures at 10 mM. A 10-point, 1:3 dilution series was prepared from 10 mM stock concentrations in Echo-compatible LDV plates. 10 nL of each compound dilution series was dispensed into assays wells using an Echo 650 (Labcyte inc. USA). 10 nL of 10 mM Lenalidomide was transferred into the active-control wells for the assay and 10 nL of DMSO was transferred into the neutral-control wells. The assay was then allowed to incubate for 30 min at ambient temperature after transferring compound. Plate measurements were taken on a Pherastar FSX (BMG Labtech, Germany) using the HTRF Red filter (Ex. 337 nm, em1: 620 nm, em2: 665 nm) (Flashes: 50, Integration time: 60-400 us, Z-height: 10 mm, Ratio-multiplier: 10,000). The HTRF signal was then subsequently normalized to the neutral and active controls. Analysis and IC50 values were derived using KNIME analytics (KNIME Zurich) transformation and fitting within Collaborative Drug Discovery (Collaborative Drug Discovery USA). Ki was derived from the geometric mean of the IC50 values using the Cheng-Prustoff transformation.

| Dmax (CDK2) | pKi (CRBN-DDB1) | SMILES |
| --- | --- | --- |
| ≤ 10% | 6.00 to 7.00 | CS(=O)(=O)N1CC(COC(=O)NCc2ccc3c(c2)C(=O)N(C2CCC(=O)NC2=O)C3)C1 (stereo not drawn) [Compound 91, (1-methanesulfonylazetidin-3-yl)methyl N-{[2-(2,6-dioxopiperidin-3-yl)-3-oxo-2,3-dihydro-1H-isoindol-5-yl]methyl}carbamate] |
| 10 to 50% | 6.00 to 7.00 | CCC1(CCCOC(=O)NCc2ccc3c(c2)C(=O)N(C2CCC(=O)NC2=O)C3)CC1 (stereo not drawn) [Compound 101, 3-(1-ethylcyclopropyl)propyl ((2-(2,6-dioxopiperidin-3-yl)-3-oxoisoindolin-5-yl)methyl)carbamate] |
| 10 to 50% | ≥ 7.00 | COc1c(CNC(=O)OCC2CC3(CCC3)C2)ccc2c1C(=O)N(C1CCC(=O)NC1=O)C2 (stereo not drawn) [Compound 102, spiro[3.3]heptan-2-ylmethyl ((2-(2,6-dioxopiperidin-3-yl)-4-methoxy-3-oxoisoindolin-5-yl)methyl)carbamate] |
| 10 to 50% | ≥ 7.00 | COc1cc(CNC(=O)OCC2CC3(CCC3)C2)cc2c1CN(C1CCC(=O)NC1=O)C2=O (stereo not drawn) [Compound 103, spiro[3.3]heptan-2-ylmethyl ((2-(2,6-dioxopiperidin-3-yl)-7-methoxy-3-oxoisoindolin-5-yl)methyl)carbamate] |
| 50 to 80% | ≥ 7.00 | O=C1CCC(N2Cc3c(Cl)cc(CNC(=O)OCC4CC5(CCC5)C4)cc3C2=O)C(=O)N1 (stereo not drawn) [Compound 104, spiro[3.3]heptan-2-ylmethyl ((7-chloro-2-(2,6-dioxopiperidin-3-yl)-3-oxoisoindolin-5-yl)methyl)carbamate] |
| 50 to 80% | ≥ 7.00 | Cc1cc(CNC(=O)OCC2CC3(CCC3)C2)cc2c1CN(C1CCC(=O)NC1=O)C2=O (stereo not drawn) [Compound 105, spiro[3.3]heptan-2-ylmethyl ((2-(2,6-dioxopiperidin-3-yl)-7-methyl-3-oxoisoindolin-5-yl)methyl)carbamate] |
| 50 to 80% | 6.00 to 7.00 | N#Cc1cc(CNC(=O)OCC2CC3(CCC3)C2)cc2c1CN(C1CCC(=O)NC1=O)C2=O (stereo not drawn) [Compound 106, spiro[3.3]heptan-2-ylmethyl ((7-cyano-2-(2,6-dioxopiperidin-3-yl)-3-oxoisoindolin-5-yl)methyl)carbamate] |
| 50 to 80% | 6.00 to 7.00 | O=C1CCC(N2Cc3ccc(CNC(=O)OC(c4ccccc4)C4CC5(CCC5)C4)cc3C2=O)C(=O)N1 (stereo not drawn) [Compound 107, phenyl(spiro[3.3]heptan-2-yl)methyl ((2-(2,6-dioxopiperidin-3-yl)-3-oxoisoindolin-5-yl)methyl)carbamate] |
| 10 to 50% | 6.00 to 7.00 | O=C1CCC(N2Cc3ccc(CNC(=O)OC(C4CC4)C4CC5(CCC5)C4)cc3C2=O)C(=O)N1 (stereo not drawn) [Compound 108, cyclopropyl(spiro[3.3]heptan-2-yl)methyl ((2-(2,6-dioxopiperidin-3-yl)-3-oxoisoindolin-5-yl)methyl)carbamate] |
| 10 to 50% | 6.00 to 7.00 | O=C1CCC(N2Cc3ccc(CNC(=O)OC(Cc4ccccc4)C4CC5(CCC5)C4)cc3C2=O)C(=O)N1 (stereo not drawn) [Compound 109, 2-phenyl-1-(spiro[3.3]heptan-2-yl)ethyl ((2-(2,6-dioxopiperidin-3-yl)-3-oxoisoindolin-5-yl)methyl)carbamate] |
| 10 to 50% | 6.00 to 7.00 | O=C1CCC(N2Cc3ccc(CNC(=O)OC(CC4CC4)C4CC5(CCC5)C4)cc3C2=O)C(=O)N1 (stereo not drawn) [Compound 110, 2-cyclopropyl-1-(spiro[3.3]heptan-2-yl)ethyl ((2-(2,6-dioxopiperidin-3-yl)-3-oxoisoindolin-5-yl)methyl)carbamate] |
| 10 to 50% | ≥ 7.00 | O=C1CCC(N2Cc3ccc(CNC(=S)OCC4CC5(CCC5)C4)cc3C2=O)C(=O)N1 (stereo not drawn) [Compound 111, O-(spiro[3.3]heptan-2-ylmethyl) ((2-(2,6-dioxopiperidin-3-yl)-3-oxoisoindolin-5-yl)methyl)carbamothioate] |
| 10 to 50% | 6.00 to 7.00 | CN(C)C(=O)N1CC(OC(=O)NCc2ccc3c(c2)C(=O)N(C2CCC(=O)NC2=O)C3)C1 (stereo not drawn) [Compound 112, 1-(dimethylcarbamoyl)azetidin-3-yl ((2-(2,6-dioxopiperidin-3-yl)-3-oxoisoindolin-5-yl)methyl)carbamate] |
| 10 to 50% | 6.00 to 7.00 | CC(OC(=O)NCc1ccc2c(c1)C(=O)N(C1CCC(=O)NC1=O)C2)C1CC2(CCC2)C1 (stereo not drawn) [Compound 113, 1-(spiro[3.3]heptan-2-yl)ethyl ((2-(2,6-dioxopiperidin-3-yl)-3-oxoisoindolin-5-yl)methyl)carbamate] |
| 10 to 50% | 6.00 to 7.00 | CC(NC(=O)OCC1CC2(CCC2)C1)c1ccc2c(c1)C(=O)N(C1CCC(=O)NC1=O)C2 (stereo not drawn) [Compound 114] |
| 50 to 80% | 6.00 to 7.00 | O=C1CCC(N2Cc3ccc(CNC(=O)OCC4CC5(CCCC5)C4)cc3C2=O)C(=O)N1 (stereo not drawn) [Compound 115, spiro[3.4]octan-2-ylmethyl ((2-(2,6-dioxopiperidin-3-yl)-3-oxoisoindolin-5-yl)methyl)carbamate] |
| 10 to 50% | 6.00 to 7.00 | CC(C)[C@@H]1C[C@H]1COC(=O)NCc1ccc2c(c1)C(=O)N(C1CCC(=O)NC1=O)C2 (stereo partly drawn) [Compound 116, ((1R,2S)-2-isopropylcyclopropyl)methyl ((2-(2,6-dioxopiperidin-3-yl)-3-oxoisoindolin-5-yl)methyl)carbamate] |
| > 80% | 6.00 to 7.00 | O=C1CCC(N2C(=O)c3ccc(CNC(=O)OCC4CC5(CCC5)C4)cc3C2=O)C(=O)N1 (stereo not drawn) [Compound 117, spiro[3.3]heptan-2-ylmethyl ((2-(2,6-dioxopiperidin-3-yl)-1,3-dioxoisoindolin-5-yl)methyl)carbamate] |
| 50 to 80% | 6.00 to 7.00 | O=C1CCC(N2Cc3ccc(C4(NC(=O)OCC5CC6(CCC6)C5)CC4)cc3C2=O)C(=O)N1 (stereo not drawn) [Compound 118, spiro[3.3]heptan-2-ylmethyl (1-(2-(2,6-dioxopiperidin-3-yl)-3-oxoisoindolin-5-yl)cyclopropyl)carbamate] |
| 10 to 50% | 6.00 to 7.00 | C[C@H]1C[C@H](COC(=O)NCc2ccc3c(c2)C(=O)N(C2CCC(=O)NC2=O)C3)C1 (stereo partly drawn) [Compound 119] |
| 10 to 50% | 6.00 to 7.00 | C[C@H]1C[C@@H](COC(=O)NCc2ccc3c(c2)C(=O)N(C2CCC(=O)NC2=O)C3)C1 (stereo partly drawn) [Compound 120, ((1s,3s)-3-methylcyclobutyl)methyl ((2-(2,6-dioxopiperidin-3-yl)-3-oxoisoindolin-5-yl)methyl)carbamate] |
| 10 to 50% | 6.00 to 7.00 | O=C1CCC(N2Cc3ccc(CNC(=O)OC4CC5(CCCC5)C4)cc3C2=O)C(=O)N1 (stereo not drawn) [Compound 121, spiro[3.4]octan-2-yl ((2-(2,6-dioxopiperidin-3-yl)-3-oxoisoindolin-5-yl)methyl)carbamate] |
| 50 to 80% | 6.00 to 7.00 | O=C1CCC(N2Cc3c(F)cc(CNC(=O)OCC4CC5(CCC5)C4)cc3C2=O)C(=O)N1 (stereo not drawn) [Compound 122, spiro[3.3]heptan-2-ylmethyl ((2-(2,6-dioxopiperidin-3-yl)-7-fluoro-3-oxoisoindolin-5-yl)methyl)carbamate] |
| 10 to 50% | 6.00 to 7.00 | O=C1CCC(N2Cc3cc(F)c(CNC(=O)OCC4CC5(CCC5)C4)cc3C2=O)C(=O)N1 (stereo not drawn) [Compound 123, spiro[3.3]heptan-2-ylmethyl ((2-(2,6-dioxopiperidin-3-yl)-6-fluoro-3-oxoisoindolin-5-yl)methyl)carbamate] |
